The values below come from patent US20130040990A1, “SYNTHESIS OF DGJNAc FROM D-GLUCURONOLACTONE AND USE TO INHIBIT ALPHA-N-ACETYLGALACTOSAMINIDASES” (The Chancellor, Masters and Scholars of the University of …, priority 2010, published 2013).

For assay [1], the target named is T1, coffee bean α-galactosidase (Coffea arabica, UniProt Q42656).
T1 construct: coffee bean α-galactosidase; from tissue; host or cells: coffee bean
Description: biochemical.

The test system of assay [2] is α-N-acetylgalactosaminidases. Description: Inhibition of α-N-acetylgalactosaminidases (source not given). The format is biochemical.
Assay [3] concerns the target β-hexosaminidase from human placenta. Put plainly: Inhibition of β-hexosaminidase from human placenta. The format is biochemical. Conditions: for pKi: 1L non-competitive, 1D competitive.
Assay [4] addresses β-hexosaminidase from bovine kidney. Description: Inhibition of β-hexosaminidase from bovine kidney. The assay is classed as biochemical.
In assay [5] the target is T2, α-N-acetylgalactosaminidase (GalNAcase) from chicken liver (Gallus gallus, UniProt Q90744).
T2 construct: from tissue; host or cells: chicken liver
T2 sequence (Q90744 1-405): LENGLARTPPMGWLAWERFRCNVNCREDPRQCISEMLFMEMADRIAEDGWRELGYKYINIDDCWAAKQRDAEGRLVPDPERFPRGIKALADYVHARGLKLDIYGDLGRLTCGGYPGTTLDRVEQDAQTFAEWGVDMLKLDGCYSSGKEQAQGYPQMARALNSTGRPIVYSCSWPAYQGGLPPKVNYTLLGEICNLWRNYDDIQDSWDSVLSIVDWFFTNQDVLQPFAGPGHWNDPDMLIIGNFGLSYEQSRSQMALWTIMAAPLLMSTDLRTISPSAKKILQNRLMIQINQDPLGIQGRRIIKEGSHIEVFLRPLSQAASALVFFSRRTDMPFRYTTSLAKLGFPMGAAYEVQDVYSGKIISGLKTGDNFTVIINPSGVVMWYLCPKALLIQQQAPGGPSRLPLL
Put plainly: Inhibition of GalNAcase from chicken liver. The assay is classed as biochemical. The following applies: competitive inhibition.

For assay [6], the target named is β-hexosaminidase from HL-60. Put plainly: Inhibition of β-hexosaminidase from HL-60. The assay is classed as biochemical.
Assay [7] addresses α-N-acetylgalactosaminidase (GalNAcase) from Charonia lampas. Put plainly: Inhibition of GalNAcase from Charonia lampas. The assay is classed as biochemical. Conditions: competitive inhibition.
The target in assay [8] is β-hexosaminidase from Jack bean. Description: Inhibition of β-hexosaminidase from Jack bean. The assay is classed as biochemical.
Assay [9] deals with β-hexosaminidases. Conditions: literature statement; cited from earlier work.
Assay [10] relates to GalNAcases. The following applies: literature statement; cited from earlier work.

pIC50, pKi: −log10 of the molar value.

T1 sequence (Q42656 16-378): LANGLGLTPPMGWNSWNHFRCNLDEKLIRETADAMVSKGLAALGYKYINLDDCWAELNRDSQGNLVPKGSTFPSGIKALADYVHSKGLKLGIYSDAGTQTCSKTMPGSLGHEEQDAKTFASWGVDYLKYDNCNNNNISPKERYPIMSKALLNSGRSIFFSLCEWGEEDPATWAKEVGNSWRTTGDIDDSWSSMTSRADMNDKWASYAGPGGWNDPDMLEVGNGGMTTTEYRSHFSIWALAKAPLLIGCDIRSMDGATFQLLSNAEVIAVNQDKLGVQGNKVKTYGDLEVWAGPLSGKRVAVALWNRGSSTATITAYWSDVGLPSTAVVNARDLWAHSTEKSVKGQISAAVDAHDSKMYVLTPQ

As for `CC(=O)NC1CNC(CO)C(O)C1O` [L-DGJNAc 1L], the “inhibition of coffee bean α-galactosidase” value in assay [1] was “no inhibition”. Besides, the “inhibition of α-N-acetylgalactosaminidases” value in [2] is recorded as “no inhibition”. In addition, the negative-log Ki (pKi) (usually the negative decadic logarithm of the Ki, by convention in mol/L) in assay [3] was 2.96.

Regarding `CC(=O)N[C@H]1CN[C@H](CO)[C@H](O)[C@@H]1O` [DGJNAc 1D, 2-acetamido-1,2-dideoxy-D-galacto-nojirimycin], the negative logarithm of the IC50 (pIC50) – broadly, the IC50 on a negative log10 scale, so that one unit is a factor of ten – in [1] was 4.19; in assay [4] it was 5.38; in assay [6], 5.66; in assay [8] it was 5.74; in assay [3] it was 5.08. For the same compound, the negative-log Ki (pKi) in [5] is 7.09; in assay [7] it was 6.87; in [3] it was 5.66.

As for `CC(=O)N[C@H]1c2nc(CC(=O)O)cn2[C@H](CO)[C@H](O)[C@@H]1O` [nagstatin 4, nagstatin], the “inhibition of β-hexosaminidases” value in assay [9] was “potent inhibitor”. The “inhibition of GalNAcases” value in assay [10] was “does not inhibit”.
